# Test results reported in US20240300980A1, “HETEROCYCLIC COMPOUNDS AS KRAS INHIBITOR, AND PREPARATION THEREFOR AND USE THEREOF IN TREATMENT” (SHANGHAI KECHOW PHARMA, INC., priority 2021, published 2024).
# System: AGS cells (KRAS^G12D)
# Assay: Detection of cell proliferation in vitro by MTT/MTS method (cell activity experiment)
# Format: cell-based
# Conditions: AGS cells; MTT/MTS; 3 days of drug treatment; read-out: AGS IC50
# Protocol: The above cells were cultured in a complete medium containing 10% fetal bovine serum, 100 IU/mL penicillin and 100 jag/mL streptomycin, in the aseptic incubator with 95% relative humidity and 5% CO2 concentration.
# 2. Reagents: F12K, D-PBS, FBS, Penicillin Streptomycin, Tryple, MTT (5 mg/mL)
# Appropriate amount of compound powder was weighed in a 1.5 mL centrifuge tube, then the corresponding volume of dimethyl sulfoxide (DMSO) was added to form a 20 mM reserve solution. The solution was packed separately and stored in a refrigerator at −20° C. away from light.
# The cells were inoculated in a cell culture bottle, added an appropriate amount of complete medium, and cultured in a sterile incubator. When the degree of cell confluence reached more than 80%, subculture was carried out.
# The adherent cells in logarithmic growth phase were digested by trypsin or the suspension cells were collected by centrifugation and counted. 90 μL cell suspension was inoculated into 96-well plate according to the cell inoculation density of 1000 cells per well, and 10 μL of 10-fold final concentration compound diluted by culture medium was added 24 hours later. Compared with the hole with the same volume of 5% DMSO as control, the final concentration of DMSO was 0.5%. After 3 days of drug treatment, the cell viability was detected by MTT. The specific methods are as follows: 10 μL MTT per well was added into the incubator for 4 hours, the supernatant was discarded and 150 μL DMSO was added to dissolve the crystal methylazan, and the absorbance of 490 nm was detected by enzyme labeling instrument, or 10 μL MITS per well was added to the incubator for 4 hours, and […] absorbance was detected directly by enzyme labeling instrument. GraphPad Prism 6 software makes dose-effect curve and calculates IC50.
row,Structure (SMILES),IC50 [nM]
1,"CCC1CCc2cc(O)cc(-c3ccc4c(N5C[C@H]6CC[C@@H](C5)N6)nc(OC[C@@]56CCCN5C[C@H](F)C6)nc4c3F)c21 (single isomer, unassigned) [Example 284]",2200
2,"CCC1CCc2cc(O)cc(-c3ccc4c(N5C[C@H]6CC[C@@H](C5)N6)nc(OC[C@@]56CCCN5C[C@H](F)C6)nc4c3F)c21 (single isomer, unassigned) [Example 285]",7
3,"CC1CCCc2cc(O)cc(-c3ccc4c(N5C[C@H]6CC[C@@H](C5)N6)nc(OC[C@@]56CCCN5C[C@H](F)C6)nc4c3F)c21 (single isomer, unassigned) [Example 287]",2140
4,"CC1CCCc2cc(O)cc(-c3ccc4c(N5C[C@H]6CC[C@@H](C5)N6)nc(OC[C@@]56CCCN5C[C@H](F)C6)nc4c3F)c21 (single isomer, unassigned) [Example 288]",7.2
5,"CCC1CCCc2cc(O)cc(-c3ccc4c(N5C[C@H]6CC[C@@H](C5)N6)nc(OC[C@@]56CCCN5C[C@H](F)C6)nc4c3F)c21 (single isomer, unassigned) [Example 290]",3410
6,"CCC1CCCc2cc(O)cc(-c3ccc4c(N5C[C@H]6CC[C@@H](C5)N6)nc(OC[C@@]56CCCN5C[C@H](F)C6)nc4c3F)c21 (single isomer, unassigned) [Example 291]",7.2

# Same assay, conditions: Homo sapiens, AGS, 72 h, AGS cells; MTT/MTS; 3 days of drug treatment; read-out: AGS IC50
row,Structure (SMILES),IC50 [nM]
1,"CC[C@@H]1CCc2cc(O)cc(-c3ncc4c(N5CC6CCC(C5)N6)nc(OC[C@@]56CCCN5C[C@H](F)C6)nc4c3F)c21 (single isomer, unassigned) [Example 221, (R)-7-(4-((1R,5S)-3,8-diazabicyclo[3.2.1]octan-3-yl)-8-fluoro-2-(((2R,7aS)-2-fluorotetrahydro-1H-pyrrolizin-7a(5H)-yl)methoxy)pyrido[4,3-d]pyrimidin-7-yl)-1-ethyl-2,3-dihydro-1H-inden-5-ol or (S)-7-(4-((1R,5S)-3,8-diazabicyclo[3.2.1]octan-3-yl)-8-fluoro-2-(((2R,7aS)-2-fluorotetrahydro-1H-pyrrolizin-7a(5H)-yl)methoxy)pyrido[4,3-d]pyrimidin-7-yl)-1-ethyl-2,3-dihydro-1H-inden-5-ol]",875
2,"CC[C@H]1CCc2cc(O)cc(-c3ncc4c(N5CC6CCC(C5)N6)nc(OC[C@@]56CCCN5C[C@H](F)C6)nc4c3F)c21 (single isomer, unassigned) [Example 222, (S)-7-(4-((1R,5S)-3,8-diazabicyclo[3.2.1]octan-3-yl)-8-fluoro-2-(((2R,7aS)-2-fluorotetrahydro-1H-pyrrolizin-7a(5H)-yl)methoxy)pyrido[4,3-d]pyrimidin-7-yl)-1-ethyl-2,3-dihydro-1H-inden-5-ol or (R)-7-(4-((1R,5S)-3,8-diazabicyclo[3.2.1]octan-3-yl)-8-fluoro-2-(((2R,7aS)-2-fluorotetrahydro-1H-pyrrolizin-7a(5H)-yl)methoxy)pyrido[4,3-d]pyrimidin-7-yl)-1-ethyl-2,3-dihydro-1H-inden-5-ol]",2.5
3,"C[C@@H]1CCCc2cc(O)cc(-c3ncc4c(N5CC6CCC(C5)N6)nc(OC[C@@]56CCCN5C[C@H](F)C6)nc4c3F)c21 (single isomer, unassigned) [Example 225, (R)-4-(4-((1R,5S)-3,8-diazabicyclo[3.2.1]octan-3-yl)-8-fluoro-2-(((2R,7aS)-2-fluorotetrahydro-1H-pyrrolizin-7a(5H)-yl)methoxy)pyrido[4,3-d]pyrimidin-7-yl)-5-methyl-5,6,7,8-tetrahydronaphthalen-2-ol or (S)-4-(4-((1R,5S)-3,8-diazabicyclo[3.2.1]octan-3-yl)-8-fluoro-2-(((2R,7aS)-2-fluorotetrahydro-1H-pyrrolizin-7a(5H)-yl)methoxy)pyrido[4,3-d]pyrimidin-7-yl)-5-methyl-5,6,7,8-tetrahydronaphthalen-2-ol]",668
4,"C[C@H]1CCCc2cc(O)cc(-c3ncc4c(N5CC6CCC(C5)N6)nc(OC[C@@]56CCCN5C[C@H](F)C6)nc4c3F)c21 (single isomer, unassigned) [Example 226, (S)-4-(4-((1R,5S)-3,8-diazabicyclo[3.2.1]octan-3-yl)-8-fluoro-2-(((2R,7aS)-2-fluorotetrahydro-1H-pyrrolizin-7a(5H)-yl)methoxy)pyrido[4,3-d]pyrimidin-7-yl)-5-methyl-5,6,7,8-tetrahydronaphthalen-2-ol or (R)-4-(4-((1R,5S)-3,8-diazabicyclo[3.2.1]octan-3-yl)-8-fluoro-2-(((2R,7aS)-2-fluorotetrahydro-1H-pyrrolizin-7a(5H)-yl)methoxy)pyrido[4,3-d]pyrimidin-7-yl)-5-methyl-5,6,7,8-tetrahydronaphthalen-2-ol]",2.4
5,"CC[C@@H]1CCCc2cc(O)cc(-c3ncc4c(N5CC6CCC(C5)N6)nc(OC[C@@]56CCCN5C[C@H](F)C6)nc4c3F)c21 (single isomer, unassigned) [Example 228, (R)-4-(4-((1R,5S)-3,8-diazabicyclo[3.2.1]octan-3-yl)-8-fluoro-2-(((2R,7aS)-2-fluorotetrahydro-1H-pyrrolizin-7a(5H)-yl)methoxy)pyrido[4,3-d]pyrimidin-7-yl)-5-ethyl-5,6,7,8-tetrahydronaphthalen-2-ol or (S)-4-(4-((1R,5S)-3,8-diazabicyclo[3.2.1]octan-3-yl)-8-fluoro-2-(((2R,7aS)-2-fluorotetrahydro-1H-pyrrolizin-7a(5H)-yl)methoxy)pyrido[4,3-d]pyrimidin-7-yl)-5-ethyl-5,6,7,8-tetrahydronaphthalen-2-ol]",1090
6,"CC[C@H]1CCCc2cc(O)cc(-c3ncc4c(N5CC6CCC(C5)N6)nc(OC[C@@]56CCCN5C[C@H](F)C6)nc4c3F)c21 (single isomer, unassigned) [Example 229, (S)-4-(4-((1R,5S)-3,8-diazabicyclo[3.2.1]octan-3-yl)-8-fluoro-2-(((2R,7aS)-2-fluorotetrahydro-1H-pyrrolizin-7a(5H)-yl)methoxy)pyrido[4,3-d]pyrimidin-7-yl)-5-ethyl-5,6,7,8-tetrahydronaphthalen-2-ol or (R)-4-(4-((1R,5S)-3,8-diazabicyclo[3.2.1]octan-3-yl)-8-fluoro-2-(((2R,7aS)-2-fluorotetrahydro-1H-pyrrolizin-7a(5H)-yl)methoxy)pyrido[4,3-d]pyrimidin-7-yl)-5-ethyl-5,6,7,8-tetrahydronaphthalen-2-ol]",2.5
7,"C#Cc1cccc2cc(O)cc(-c3ncc4c(N5C[C@H]6CC[C@@H](C5)N6)nc(OCC5(CN6CCCC6)CC5)nc4c3F)c12 [Example 1, 4-(4-((1R,5S)-3,8-diazabicyclo[3.2.1]octan-3-yl)-8-fluoro-2-((1-(pyrrolidin-1-ylmethyl)cyclopropyl)methoxy)pyrido[4,3-d]pyrimidin-7-yl)-5-ethynyl naphthalen-2-ol]",8.1
8,"CCc1c(F)ccc2cc(O)cc(-c3ncc4c(N5C[C@H]6CC[C@@H](C5)N6)nc(OCC5(CN6CCCC6)CC5)nc4c3F)c12 [Example 3, 4-(4-((1R,5S)-3,8-diazabicyclo[3.2.1]octan-3-yl)-8-fluoro-2-((1-(pyrrolidin-1-ylmethyl)cyclopropyl)methoxy)pyrido[4,3-d]pyrimidin-7-yl)-5-ethyl-6-fluoronaphthalen-2-ol]",4.5
9,"CCc1cccc2cc(O)cc(-c3ncc4c(N5C[C@H]6CC[C@@H](C5)N6)nc(OCC5(CN6CCCC6)CC5)nc4c3F)c12 [Example 4, 4-(4-((1R,5S)-3,8-diazabicyclo[3.2.1]octan-3-yl)-8-fluoro-2-((1-(pyrrolidin-1-ylmethyl)cyclopropyl)methoxy)pyrido[4,3-d]pyrimidin-7-yl)-5-ethylnaphthalen-2-ol]",11
